Each structure is given as a SMILES string. Like-named read-outs stand apart in the source and are kept apart here.

The record followed here is patent US12662465B2, “EGFR inhibitors” (Blueprint Medicines Corporation, priority 2021, dated 2026).

In one test the target is T1, EGFR (d746-750) (Homo sapiens, UniProt P00533, DEL746-750).
T1 construct: purchased SignalChem E10-122JG
Nature of the test: Biochemical EGFR inhibition assay (Caliper mobility shift), EGFR (d746-750). The following applies: read-out: Enz EGFR_Exon19-del746-750 IC50.

For the next test, the target named is T2, EGFR L858R (Homo sapiens, UniProt P00533, L858R).
T2 construct: purchased SignalChem E10-122BG
T2 sequence (P00533 25-1210 L858R): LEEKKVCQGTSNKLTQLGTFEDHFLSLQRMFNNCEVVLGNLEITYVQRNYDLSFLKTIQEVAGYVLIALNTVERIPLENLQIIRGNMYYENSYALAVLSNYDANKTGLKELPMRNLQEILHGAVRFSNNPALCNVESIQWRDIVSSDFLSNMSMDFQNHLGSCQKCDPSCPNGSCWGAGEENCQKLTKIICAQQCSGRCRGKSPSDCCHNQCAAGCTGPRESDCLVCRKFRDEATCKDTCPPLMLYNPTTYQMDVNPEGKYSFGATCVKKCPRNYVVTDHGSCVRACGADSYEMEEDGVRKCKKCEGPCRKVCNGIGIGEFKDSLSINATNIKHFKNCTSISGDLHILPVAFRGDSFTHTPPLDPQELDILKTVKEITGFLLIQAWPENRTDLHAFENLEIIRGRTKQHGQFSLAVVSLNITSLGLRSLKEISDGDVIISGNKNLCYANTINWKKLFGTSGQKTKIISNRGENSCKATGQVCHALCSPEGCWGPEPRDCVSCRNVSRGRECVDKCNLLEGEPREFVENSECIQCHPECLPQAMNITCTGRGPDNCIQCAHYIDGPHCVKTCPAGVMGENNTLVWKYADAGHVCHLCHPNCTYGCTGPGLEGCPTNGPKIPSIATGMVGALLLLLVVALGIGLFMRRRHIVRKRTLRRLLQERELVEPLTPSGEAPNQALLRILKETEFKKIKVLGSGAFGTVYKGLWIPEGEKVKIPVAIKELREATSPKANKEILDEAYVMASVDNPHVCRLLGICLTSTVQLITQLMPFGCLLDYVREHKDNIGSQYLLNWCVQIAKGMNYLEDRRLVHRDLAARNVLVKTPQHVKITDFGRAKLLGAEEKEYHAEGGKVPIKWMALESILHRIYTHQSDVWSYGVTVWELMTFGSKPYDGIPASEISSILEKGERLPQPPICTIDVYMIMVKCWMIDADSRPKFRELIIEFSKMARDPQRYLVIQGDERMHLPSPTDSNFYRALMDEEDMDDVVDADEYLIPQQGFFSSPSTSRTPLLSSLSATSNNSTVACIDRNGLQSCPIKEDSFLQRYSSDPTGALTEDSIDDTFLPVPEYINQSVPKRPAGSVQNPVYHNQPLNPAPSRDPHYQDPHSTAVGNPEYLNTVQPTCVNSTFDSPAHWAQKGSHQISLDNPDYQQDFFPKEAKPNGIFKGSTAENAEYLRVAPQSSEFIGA
Nature of the test: Biochemical EGFR inhibition assay (Caliper mobility shift), EGFR L858R. The following applies: read-out: Enz EGFR_L858R IC50.

The target of test [1] is intracellular phosphorylation of EGFR (Tyr1068) in PC-9 cells (Ex19Del) (Homo sapiens, UniProt P00533, DEL746-750). Nature of the test: PC-9 pEGFR AlphaLISA assay. Type of test: cell-based. The following applies: 4 hours compound incubation, read-out: Ext pEGFR_PC-9 Ex19Del IC50.
intracellular phosphorylation of EGFR (Tyr1068) in PC-9 cells (Ex19Del), sequence (P00533 with tags, fused parts or gaps DEL746-750): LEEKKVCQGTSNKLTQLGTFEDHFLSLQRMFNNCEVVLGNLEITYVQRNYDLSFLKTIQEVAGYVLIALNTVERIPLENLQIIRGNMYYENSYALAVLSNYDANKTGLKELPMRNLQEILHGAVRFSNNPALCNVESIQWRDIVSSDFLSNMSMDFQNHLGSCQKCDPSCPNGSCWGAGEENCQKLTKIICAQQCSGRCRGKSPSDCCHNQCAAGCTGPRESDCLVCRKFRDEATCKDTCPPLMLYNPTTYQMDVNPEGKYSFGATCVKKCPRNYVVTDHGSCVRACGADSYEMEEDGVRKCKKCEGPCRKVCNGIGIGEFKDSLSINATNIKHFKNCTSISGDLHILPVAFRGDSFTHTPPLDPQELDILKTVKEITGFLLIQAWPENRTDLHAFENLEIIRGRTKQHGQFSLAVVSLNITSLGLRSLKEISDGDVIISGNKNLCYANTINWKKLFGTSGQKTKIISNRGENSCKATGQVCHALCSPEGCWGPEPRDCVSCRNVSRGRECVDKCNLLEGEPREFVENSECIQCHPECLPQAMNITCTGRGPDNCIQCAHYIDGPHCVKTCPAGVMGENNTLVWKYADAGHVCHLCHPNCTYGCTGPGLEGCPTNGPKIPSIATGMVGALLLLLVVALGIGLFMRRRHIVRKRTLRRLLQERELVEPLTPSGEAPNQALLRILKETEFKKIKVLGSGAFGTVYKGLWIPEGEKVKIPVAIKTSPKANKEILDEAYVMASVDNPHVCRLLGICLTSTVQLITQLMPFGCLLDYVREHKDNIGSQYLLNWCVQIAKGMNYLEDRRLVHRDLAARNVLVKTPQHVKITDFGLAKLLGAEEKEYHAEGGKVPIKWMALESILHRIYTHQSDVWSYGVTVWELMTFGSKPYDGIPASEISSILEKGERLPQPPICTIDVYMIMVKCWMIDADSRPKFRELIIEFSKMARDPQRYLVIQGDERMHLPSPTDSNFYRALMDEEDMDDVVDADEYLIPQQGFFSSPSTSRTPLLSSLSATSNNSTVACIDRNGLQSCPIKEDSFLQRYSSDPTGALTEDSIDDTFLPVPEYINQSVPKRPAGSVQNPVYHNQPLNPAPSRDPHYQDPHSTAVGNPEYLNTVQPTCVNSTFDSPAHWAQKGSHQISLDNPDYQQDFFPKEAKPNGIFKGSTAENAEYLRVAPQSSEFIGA
[2] abbreviates: 1.0 mM ATP or ATP Km, room temperature (25° C.).

T1 sequence (P00533 with tags, fused parts or gaps DEL746-750 limits assumed): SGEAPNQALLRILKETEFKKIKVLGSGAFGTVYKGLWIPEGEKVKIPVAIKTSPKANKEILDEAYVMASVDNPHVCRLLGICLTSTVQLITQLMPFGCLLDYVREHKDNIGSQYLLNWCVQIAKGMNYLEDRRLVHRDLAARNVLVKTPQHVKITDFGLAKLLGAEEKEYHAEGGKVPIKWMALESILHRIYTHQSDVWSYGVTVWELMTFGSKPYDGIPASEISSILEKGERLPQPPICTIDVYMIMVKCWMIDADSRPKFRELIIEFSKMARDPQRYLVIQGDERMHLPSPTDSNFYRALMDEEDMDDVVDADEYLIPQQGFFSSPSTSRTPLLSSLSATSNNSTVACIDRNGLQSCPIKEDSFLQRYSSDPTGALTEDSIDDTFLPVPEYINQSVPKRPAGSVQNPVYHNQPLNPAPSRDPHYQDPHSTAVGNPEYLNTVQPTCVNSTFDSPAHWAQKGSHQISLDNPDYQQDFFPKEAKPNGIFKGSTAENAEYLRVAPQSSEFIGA

Broadly, the IC50 is the point on the concentration scale where inhibition reaches its midpoint. In the case of `CC(CN(C)C)Oc1cc(-c2cnn(C)c2)cc2ncnc(Nc3ccc4ncccc4c3)c12` (racemic) [Example 42, (R)-5-((1-(dimethylamino)propan-2-yl)oxy)-7-(1-methyl-1H-pyrazol-4-yl)-N-(quinolin-6-yl)quinazolin-4-amine and (S)-5-((1-(dimethylamino)propan-2-yl)oxy)-7-(1-methyl-1H-pyrazol-4-yl)-N-(quinolin-6-yl)quinazolin-4-amine], the figures for the IC50 (at EGFR (d746-750); on EGFR L858R; in test [1]) were less than 10 nM, less than 10 nM and no more than 10 nM, respectively.
Regarding `C[C@@H](Oc1cc(-c2cnn(CCO)c2)cc2ncnc(Nc3ccc4ncccc4c3F)c12)C1COC1` [Example 51, (R)-2-(4-(4-((5-fluoroquinolin-6-yl)amino)-5-(1-(oxetan-3-yl)ethoxy)quinazolin-7-yl)-1H-pyrazol-1-yl)ethan-1-ol], the half-maximal inhibitory concentration (IC50) at EGFR (d746-750) was less than 10 nM; on EGFR L858R it was less than 10 nM; in test [1], no more than 10 nM.
Consider `C[C@H](CN(C)C)Oc1cc(-c2cn(C)nc2OC(F)F)cc2ncnc(Nc3ccc4ncccc4c3F)c12` [Example 118, (R)-7-(3-(difluoromethoxy)-1-methyl-1H-pyrazol-4-yl)-5-((1-(dimethylamino)propan-2-yl)oxy)-N-(5-fluoroquinolin-6-yl)quinazolin-4-amine], for which the IC50 on EGFR (d746-750) is less than 10 nM; on EGFR L858R, less than 10 nM; in test [1], no more than 10 nM.
With `CN(C)CCOc1cc(-c2cnn(C)c2)cc2ncnc(Nc3ccc4ncccc4c3F)c12` [Example 34, 5-(2-(dimethylamino)ethoxy)-N-(5-fluoroquinolin-6-yl)-7-(1-methyl-1H-pyrazol-4-yl)quinazolin-4-amine], the IC50 is less than 10 nM at EGFR (d746-750), 10.1 to 50 nM on EGFR L858R and 10.1 to 50 nM in test [1].
Take `C[C@@H](Oc1cc(N2CCOCC2)cc2ncnc(Nc3ccc4ncccc4c3F)c12)C1COC1` [Example 61, (R)—N-(5-fluoroquinolin-6-yl)-7-morpholino-5-(1-(oxetan-3-yl)ethoxy)quinazolin-4-amine]: the IC50 on EGFR (d746-750) was less than 10 nM; on EGFR L858R, less than 10 nM; in test [1], no more than 10 nM.
As for `C[C@H](CN(C)C)Oc1cc(N2CCOC3(CC3)C2)cc2ncnc(Nc3ccc4ncccc4c3F)c12` [Example 91, (R)-5-((1-(dimethylamino)propan-2-yl)oxy)-N-(5-fluoroquinolin-6-yl)-7-(4-oxa-7-azaspiro[2.5]octan-7-yl)quinazolin-4-amine], the IC50 on EGFR (d746-750) was 10.1 to 50 nM; on EGFR L858R, greater than 50.1 nM; in test [1], greater than 50.1 nM.
Turning to `[2H]c1c(-c2cnn(C)c2)cc(O[C@H](C)CN(C)C)c2c(Nc3ccc4ncccc4c3F)ncnc12` [Example 158, (R)-5-((1-(dimethylamino)propan-2-yl)oxy)-N-(5-fluoroquinolin-6-yl)-7-(1-methyl-1H-pyrazol-4-yl)quinazolin-8-d-4-amine], the IC50 on EGFR (d746-750) is less than 10 nM; at EGFR L858R, less than 10 nM; in test [1], no more than 10 nM.
In the case of `C[C@@H](Oc1cc(N2CC[C@H](C(C)(C)O)C2)cc2ncnc(Nc3ccc4ncccc4c3F)c12)C1COC1` [Example 62, 2—((S)-1-(4-((5-fluoroquinolin-6-yl)amino)-5-((R)-1-(oxetan-3-yl)ethoxy)quinazolin-7-yl)pyrrolidin-3-yl)propan-2-ol], the IC50 was less than 10 nM on EGFR (d746-750), less than 10 nM on EGFR L858R and no more than 10 nM in test [1].
As for `C[C@H](CN(C)C)Oc1cc(-c2cnn(C)c2)cc2ncnc(Nc3ccc4nccnc4c3F)c12` [Example 109, (R)-5-((1-(dimethylamino)propan-2-yl)oxy)-N-(5-fluoroquinoxalin-6-yl)-7-(1-methyl-1H-pyrazol-4-yl)quinazolin-4-amine], the IC50 at EGFR (d746-750) is 10.1 to 50 nM; at EGFR L858R it was greater than 50.1 nM; in test [1], greater than 50.1 nM.
With `C[C@H](CN(C)C)Oc1cc(N2CC3(COC3)C2)cc2ncnc(Nc3ccc4ncccc4c3F)c12` [Example 71, (R)-5-((1-(dimethylamino)propan-2-yl)oxy)-N-(5-fluoroquinolin-6-yl)-7-(2-oxa-6-azaspiro[3.3]heptan-6-yl)quinazolin-4-amine], the IC50 at EGFR (d746-750) was less than 10 nM; on EGFR L858R it was less than 10 nM; in test [1], no more than 10 nM.
Consider `CC(CO)n1cc(-c2cc(O[C@H](C)C3COC3)c3c(Nc4ccc5ncccc5c4F)ncnc3c2)cn1` (mixture of isomers) [Example 119, (R)-2-(4-(4-((5-fluoroquinolin-6-yl)amino)-5-((R)-1-(oxetan-3-yl)ethoxy)quinazolin-7-yl)-1H-pyrazol-1-yl)propan-1-ol and (S)-2-(4-(4-((5-fluoroquinolin-6-yl)amino)-5-((R)-1-(oxetan-3-yl)ethoxy)quinazolin-7-yl)-1H-pyrazol-1-yl)propan-1-ol], for which the concentration for half-maximal inhibition (IC50) at EGFR (d746-750) was less than 10 nM; at EGFR L858R, less than 10 nM; in test [1], no more than 10 nM.
Turning to `C[C@H](CN(C)C)Oc1cc(-c2cnn(C)c2)cc2nc[n+]([O-])c(Nc3ccc4ncccc4c3F)c12` (single isomer, unassigned) [Example 128], the values for the IC50 (on EGFR (d746-750); on EGFR L858R; in test [1]) were 10.1 to 50 nM, 10.1 to 50 nM and greater than 50.1 nM, respectively.
With `C[C@@H](CN(C)C)Oc1cc(-c2cnn(C)c2)cc2ncnc(Nc3ccc4ncccc4c3F)c12` (single isomer, unassigned) [Example 4, (S)-5-((1-(dimethylamino)propan-2-yl)oxy)-N-(5-fluoroquinolin-6-yl)-7-(1-methyl-1H-pyrazol-4-yl)quinazolin-4-amine or (R)-5-((1-(dimethylamino)propan-2-yl)oxy)-N-(5-fluoroquinolin-6-yl)-7-(1-methyl-1H-pyrazol-4-yl)quinazolin-4-amine], the IC50 on EGFR (d746-750) (setting [2]) is 10.1 to 50 nM; at EGFR L858R (setting [2]), 10.1 to 50 nM; in test [1], greater than 50.1 nM.
With `C[C@@H](Oc1cc(-c2cnn(C)c2)cc2ncnc(Nc3ccc4ncccc4c3F)c12)[C@@H]1COCCN1` (single isomer, unassigned) [Example 123], the 50% inhibitory concentration (IC50) on EGFR (d746-750) (setting [2]) is less than 10 nM; on EGFR L858R (setting [2]), less than 10 nM; in test [1] it was no more than 10 nM.
As for `C[C@@H](Oc1cc(N2CC3CC(C2)O3)cc2ncnc(Nc3ccc4ncccc4c3F)c12)C1COC1` [Example 59, 7-(6-oxa-3-azabicyclo[3.1.1]heptan-3-yl)-N-(5-fluoroquinolin-6-yl)-5-((R)-1-(oxetan-3-yl)ethoxy)quinazolin-4-amine], the concentration for half-maximal inhibition (IC50) was less than 10 nM at EGFR (d746-750), less than 10 nM at EGFR L858R and no more than 10 nM in test [1].
For the compound `CCn1cc(-c2cc(OC3CCN(C)CC3)c3c(Nc4ccc5ncccc5c4F)ncnc3c2)c(OC)n1` [Example 117, 7-(1-ethyl-3-methoxy-1H-pyrazol-4-yl)-N-(5-fluoroquinolin-6-yl)-5-((1-methylpiperidin-4-yl)oxy)quinazolin-4-amine], the 50% inhibitory concentration (IC50) is less than 10 nM on EGFR (d746-750), 10.1 to 50 nM on EGFR L858R and 10.1 to 50 nM in test [1].
Take `C[C@H](CN(C)C)Oc1cc(N2CCn3cncc3C2)cc2ncnc(Nc3ccc4ncccc4c3F)c12` [Example 90, (R)-7-(5,6-dihydroimidazo[1,5-a]pyrazin-7(8H)-yl)-5-((1-(dimethylamino)propan-2-yl)oxy)-N-(5-fluoroquinolin-6-yl)quinazolin-4-amine]: the values for the IC50 (on EGFR (d746-750); at EGFR L858R; in test [1]) were less than 10 nM, 10.1 to 50 nM and no more than 10 nM, respectively.
In the case of `C[C@H](Oc1cc(-c2cnn(C)c2)cc2ncnc(Nc3ccc4ncccc4c3F)c12)[C@@H]1CCCN1C` (single isomer, unassigned) [Example 147], the IC50 is less than 10 nM at EGFR (d746-750) (setting [2]), less than 10 nM on EGFR L858R (setting [2]) and no more than 10 nM in test [1].
For the compound `CN1CCC[C@H](Oc2cc(-c3cnn(C)c3)cc3ncnc(Nc4ccc5ncccc5c4F)c23)C1` [Example 35, (S)—N-(5-fluoroquinolin-6-yl)-7-(1-methyl-1H-pyrazol-4-yl)-5-((1-methylpiperidin-3-yl)oxy)quinazolin-4-amine], the results for the half-maximal inhibitory concentration (IC50) (on EGFR (d746-750); on EGFR L858R; in test [1]) were less than 10 nM, less than 10 nM and no more than 10 nM, respectively.
Take `C[C@H](CN(C)C)Oc1cc(N2CCO[C@@H](C(F)F)C2)cc2ncnc(Nc3ccc4ncccc4c3F)c12` (single isomer, unassigned) [Example 99a, 7-((S)-2-(difluoromethyl)morpholino)-5-(((R)-1-(dimethylamino)propan-2-yl)oxy)-N-(5-fluoroquinolin-6-yl) or 7-((R)-2-(difluoromethyl)morpholino)-5-(((R)-1-(dimethylamino)propan-2-yl)oxy)-N-(5-fluoroquinolin-6-yl)quinazolin-4-amine]: the results for the half-inhibitory concentration (IC50) (on EGFR (d746-750) (setting [2]); at EGFR L858R (setting [2]); in test [1]) were less than 10 nM, less than 10 nM and no more than 10 nM, respectively.
Turning to `C[C@H](CN(C)C)Oc1cc(N2CC3(CNC3)C2)cc2ncnc(Nc3ccc4ncccc4c3F)c12` [Example 152, (R)-5-((1-(dimethylamino)propan-2-yl)oxy)-N-(5-fluoroquinolin-6-yl)-7-(2,6-diazaspiro[3.3]heptan-2-yl)quinazolin-4-amine], the IC50 at EGFR (d746-750) is less than 10 nM; at EGFR L858R, less than 10 nM; in test [1], 10.1 to 50 nM.
For the compound `C[C@H](CN(C)C1CCC1)Oc1cc(-c2cnn(C)c2)cc2ncnc(Nc3ccc4ncccc4c3F)c12` [Example 115, (R)-5-((1-(cyclobutyl(methyl)amino)propan-2-yl)oxy)-N-(5-fluoroquinolin-6-yl)-7-(1-methyl-1H-pyrazol-4-yl)quinazolin-4-amine], the results for the IC50 (at EGFR (d746-750); at EGFR L858R; in test [1]) were less than 10 nM, less than 10 nM and no more than 10 nM, respectively.
